The values below come from patent publication US20070178544A1, “Anti fk778antibodies and high sensitive immunoassay methods” (priority 2004, published 2007).

The structures appear in SMILES notation.

A short description of the assay: Selection of an immunogen: titer of antibody in sera of immunized mice. In kind it is in vivo. Conditions: immunogen conjugated with bovine thyroglobulin, with FCA, Balb/c mice; four (FR267471, FR266831) or seven (FR270531) immunizations. The protocol: To obtain the selective antibody against FK778, two kinds of immunogens which were conjugated (FR267471 and FR266831) with bovine thyroglobulin (Sigma-Aldrich Corp.) mixed with Freund's complete adjuvant (FCA) (Difco) were immunized in hyperimmune Balb/c mice. After four times immunizations, the titer of antibody against the FR267471-BSA or the FR266831-BSA in sera was measured by enzyme-linked immunosorbent assay. […] To obtain immunogens having higher titer than the two immunogens, another type of immunogen FR270531 was synthesized. […] Accordingly, the present inventors have used FR270531 as an immunogen to produce antibodies directed to FK778, and FR267471 and FR266831 as positive and negative control to select the FK778 antibody specifically binding to the FK778 substance.
For `C#CCC/C(O)=C(\C#N)C(=O)Nc1ccc(OCCCCCC(=O)O)cc1` [FR267471, 6-(4-{[(2Z)-2-cyano-3-hydroxy-2-hepten-6-ynoyl]amino}phenoxy)hexanoic acid], the “titer of antibody in sera” value is “not sufficient”.
In the case of `N#C/C(C(=O)Nc1ccc(C(F)(F)F)cc1)=C(/O)CCCC(=O)O` [FR266831, (5Z)-6-cyano-5-hydroxy-7-oxo-7-{[4-(trifluoromethyl)phenyl]amino}-5-heptenoic acid], the “titer of antibody in sera” value is “not sufficient”.
For `C#CCC/C(O)=C(\C#N)C(=O)Nc1ccc(OCCCCCC(=O)Oc2c(F)c(F)c(F)c(F)c2F)cc1` [FR270531, pentafluorophenyl 6-(4-{[(2Z)-2-cyano-3-hydroxy-2-hepten-6-ynoyl]amino}phenoxy)hexanoate], the “titer of antibody in sera” value was “higher than those of FR267471 and FR266831”.
